Each structure is given as a SMILES string.

One test has as its target p38a/MK2 (Homo sapiens (Human), UniProt P49137+Q16539). The test can be described thus: p38a/MK2 biochemical assay: activation of MK2 by p38, FITC-HSP27 peptide phosphorylation (IMAP FP). The settings on record: 10-point 1:3 dilution, top dose 1 μM; 60 pM active p38a, 1 nM inactive MK2, 10 μM ATP, 2 h incubation; read-out: p38a/MK2 (1 μM) Enzyme pIC50 (converted).
The target in another test is p38a/PRAK (Homo sapiens (Human), UniProt Q16539). The test can be described thus: p38a/PRAK biochemical assay: activation of PRAK by p38, FITC-HSP27 peptide phosphorylation (IMAP FP). The settings on record: 10-point 1:3 dilution, top dose 300 μM; 60 pM active p38a, 1 nM inactive PRAK, 10 μM ATP, 2 h incubation; read-out: p38a/PRAK Enzyme pIC50 (converted). The method, boiled down: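 GST-tagged MK2 (F46–H400) and PRAK (M1–Q471), expressed in E. coli, activated by p38 and phosphorylate FITC-HSP27 peptide over 2 h with compound; readout by IMAP fluorescence polarisation (ex 485/em 528 nm). Ten-point 1:3 dilutions, top dose 1 μM for MK2 and 300 μM for PRAK. IC50 after vehicle normalisation; selectivity = IC50(PRAK)/IC50(MK2).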
Sequence of p38a/PRAK (Q16539 whole entry): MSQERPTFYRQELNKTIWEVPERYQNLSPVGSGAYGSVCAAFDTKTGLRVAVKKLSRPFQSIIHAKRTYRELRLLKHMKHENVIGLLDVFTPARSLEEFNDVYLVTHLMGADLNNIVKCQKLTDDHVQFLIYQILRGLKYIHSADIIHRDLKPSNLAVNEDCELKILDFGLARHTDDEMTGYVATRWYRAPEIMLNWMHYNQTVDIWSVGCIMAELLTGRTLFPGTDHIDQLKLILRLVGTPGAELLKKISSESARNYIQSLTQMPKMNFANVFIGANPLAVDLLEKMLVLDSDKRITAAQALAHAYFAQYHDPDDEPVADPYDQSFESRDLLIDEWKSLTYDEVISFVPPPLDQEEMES

Sequence of p38a/MK2 (P49137 46-400): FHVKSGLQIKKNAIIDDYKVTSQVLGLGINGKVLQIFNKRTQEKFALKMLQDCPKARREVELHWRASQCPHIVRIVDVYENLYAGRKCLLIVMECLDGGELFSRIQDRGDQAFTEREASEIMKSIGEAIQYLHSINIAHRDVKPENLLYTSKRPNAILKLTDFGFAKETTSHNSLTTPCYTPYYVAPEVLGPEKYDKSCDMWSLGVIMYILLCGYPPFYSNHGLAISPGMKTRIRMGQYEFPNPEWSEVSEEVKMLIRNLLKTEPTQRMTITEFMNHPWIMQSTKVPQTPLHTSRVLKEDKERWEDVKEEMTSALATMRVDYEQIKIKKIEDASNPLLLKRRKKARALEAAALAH
Sequence of p38a/MK2 (Q16539 whole entry): as the sequence (Q16539 whole entry) above

Regarding `Cc1cnc(-c2ccnc(CC3(O)CC3)n2)cc1-n1c(C)cc(OCc2ncc(F)cc2F)c(Cl)c1=O` (single isomer, unassigned) [Example 48B, rel-3-chloro-4-[(3,5-difluoropyridin-2-yl)methoxy]-2′-{2-[(1-hydroxycyclopropyl)methyl]pyrimidin-4-yl}-5′,6-dimethyl-[1,4′-bipyridin]-2-one], the IC50 on p38a/MK2 is more than 1 µM; at p38a/PRAK, more than 316 µM.
In the case of `Cc1cnc(-c2ccnc(C(C)(C)O)c2F)cc1-n1c(C)cc(OCc2ncc(F)cc2F)c(Cl)c1=O` (atropisomer, axis not shown) [Example 56A, 3-chloro-4-[(3,5-difluoropyridin-2-yl)methoxy]-1-[3′-fluoro-2′-(2-hydroxypropan-2-yl)-5-methyl-[2,4′-bipyridin]-4-yl]-6-methylpyridin-2-one], the IC50 at p38a/MK2 was 0.002 µM; on p38a/PRAK it was 1.58 µM.
The corresponding values for `Cc1cnc(-c2ccnc(C3(O)CCC3)n2)cc1-n1c(C)cc(OCc2ncc(F)cc2F)c(Cl)c1=O` (single isomer, unassigned) [Example 41B, rel-3-chloro-4-[(3,5-difluoropyridin-2-yl)methoxy]-2′-[2-(1-hydroxycyclobutyl)pyrimidin-4-yl]-5′,6-dimethyl-[1,4′-bipyridin]-2-one] are more than 1 µM and more than 316 µM.

The values are drawn from US11680056B2, “MK2 inhibitors and uses thereof” (Xinthera, Inc., priority 2021, dated 2023).
